The source of these data is patent publication US8394969B2, “Cyclic benzimidazole derivatives useful as anti-diabetic agents” (Merck Sharp & Dohme Corp., priority 2008, dated 2013).

The test addresses recombinant human AMPK complex 1 (containing α1β1γ1) (Homo sapiens, UniProt Q13131+Q9Y478). In words: […] (in vitro AMPK activation assay). In kind it is biochemical. Particulars: recombinant human AMPK complex 1 (α1β1γ1); for Emax: basal activity subtracted, read-out: % Maximum AMP Activation of human AMPK Complex 1.

recombinant human AMPK complex 1 (containing α1β1γ1), sequence (Q13131 whole entry): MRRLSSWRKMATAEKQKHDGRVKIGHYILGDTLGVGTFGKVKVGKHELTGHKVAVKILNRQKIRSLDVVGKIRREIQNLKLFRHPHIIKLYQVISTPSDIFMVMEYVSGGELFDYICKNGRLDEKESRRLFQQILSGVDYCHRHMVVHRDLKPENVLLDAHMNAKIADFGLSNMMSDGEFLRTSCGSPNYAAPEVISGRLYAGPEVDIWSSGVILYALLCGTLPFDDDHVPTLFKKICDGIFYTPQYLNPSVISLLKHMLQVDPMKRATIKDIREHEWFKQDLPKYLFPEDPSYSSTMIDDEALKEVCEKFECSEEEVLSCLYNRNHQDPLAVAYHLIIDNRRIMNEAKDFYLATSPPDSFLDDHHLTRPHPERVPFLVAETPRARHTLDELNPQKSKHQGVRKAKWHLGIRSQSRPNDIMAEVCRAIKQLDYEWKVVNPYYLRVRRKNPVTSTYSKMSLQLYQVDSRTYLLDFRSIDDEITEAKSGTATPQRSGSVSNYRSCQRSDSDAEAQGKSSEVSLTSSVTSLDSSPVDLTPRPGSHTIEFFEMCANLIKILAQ
recombinant human AMPK complex 1 (containing α1β1γ1), sequence (Q9Y478 whole entry): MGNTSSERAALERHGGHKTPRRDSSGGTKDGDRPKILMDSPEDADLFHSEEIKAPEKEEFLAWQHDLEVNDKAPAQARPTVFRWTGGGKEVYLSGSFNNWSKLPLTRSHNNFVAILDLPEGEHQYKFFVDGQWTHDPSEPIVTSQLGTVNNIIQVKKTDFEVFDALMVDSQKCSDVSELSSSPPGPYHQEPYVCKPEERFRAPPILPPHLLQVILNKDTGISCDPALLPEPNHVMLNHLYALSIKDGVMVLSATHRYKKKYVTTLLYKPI
recombinant human AMPK complex 1 (containing α1β1γ1), sequence (P54619 whole entry partner): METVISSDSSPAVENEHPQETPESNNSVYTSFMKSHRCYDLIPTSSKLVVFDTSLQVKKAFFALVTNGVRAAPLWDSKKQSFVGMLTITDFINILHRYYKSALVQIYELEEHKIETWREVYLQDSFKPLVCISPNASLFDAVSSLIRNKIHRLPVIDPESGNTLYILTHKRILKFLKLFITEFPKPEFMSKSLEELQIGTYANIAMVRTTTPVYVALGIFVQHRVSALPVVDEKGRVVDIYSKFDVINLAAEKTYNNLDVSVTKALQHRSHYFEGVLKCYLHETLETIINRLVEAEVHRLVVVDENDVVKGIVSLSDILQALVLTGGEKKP

As for `Cc1ccc(Oc2nc3cc(-c4ccc(-c5ccccc5F)cc4)c(Cl)cc3[nH]2)cc1C(=O)O` [Example 192, 5-{[6-chloro-5-(2′-fluorobiphenyl-4-yl)-1H-benzimidazol-2-yl]oxy}-2-methylbenzoic acid], the Emax was greater than 80%. With `Cc1ccc(Oc2nc3cc(-c4ccc(-c5ccccc5C)cc4)c(Cl)cc3[nH]2)cc1C(=O)O` [Example 193, 5-{[6-chloro-5-(2′-methylbiphenyl-4-yl)-1H-benzimidazol-2-yl]oxy}-2-methylbenzoic acid], the Emax is greater than 80%. On to `COc1ccccc1-c1ccc(-c2cc3nc(Oc4ccc(C)c(C(=O)O)c4)[nH]c3cc2Cl)cc1` [Example 194, 5-{[6-chloro-5-(2′-methoxybiphenyl-4-yl)-1H-benzimidazol-2-yl]oxy}-2-methylbenzoic acid], for which the Emax is greater than 80%. As to `COC(=O)c1cc(Oc2nc3cc(-c4ccc(-c5ccccc5F)cc4)c(Cl)cc3[nH]2)ccc1C` [Example 195, Methyl 5-{[6-chloro-5-(2′-fluorobiphenyl-4-yl)-1H-benzimidazol-2-yl]oxy}-2-methylbenzoate], the Emax is greater than 80%. Take `COC(=O)c1cc(Oc2nc3cc(-c4ccc(-c5ccccc5Cl)cc4)c(Cl)cc3[nH]2)ccc1C` [Example 196, Methyl 5-{[6-chloro-5-(2′-chlorobiphenyl-4-yl)-1H-benzimidazol-2-yl]oxy}-2-methylbenzoate]: the Emax is greater than 80%. Regarding `COC(=O)c1cc(Oc2nc3cc(-c4ccc(-c5ccccc5OC)cc4)c(Cl)cc3[nH]2)ccc1C` [Example 197, Methyl 5-{[6-chloro-5-(2′-methoxybiphenyl-4-yl)-1H-benzimidazol-2-yl]oxy}-2-methylbenzoate], the Emax was greater than 80%.

On to `COC(=O)c1cc(Oc2nc3cc(-c4ccc(-c5ccccc5C)cc4)c(Cl)cc3[nH]2)ccc1C` [Example 198, Methyl 5-{[6-chloro-5-(2′-methylbiphenyl-4-yl)-1H-benzimidazol-2-yl]oxy}-2-methylbenzoate], for which the Emax is greater than 80%.

Regarding `COc1ncccc1-c1ccc(-c2cc3nc(Oc4ccc(C)c(C(=O)O)c4)[nH]c3cc2Cl)cc1` [Example 199, 5-({6-chloro-5-[4-(2-methoxypyridin-3-yl)phenyl]-1-benzimidazol-2-yl}oxy)-2-methylbenzoic acid], the Emax was greater than 80%. Same read-out and setting: under `COc1ccc(-c2ccc(-c3cc4nc(Oc5ccc(C)c(C(=O)O)c5)[nH]c4cc3Cl)cc2)cn1` [Example 201, 5-({6-chloro-5-[4-(6-methoxypyridin-3-yl)phenyl]-1H-benzimidazol-2-yl}oxy)-2-methylbenzoic acid] stands greater than 80%; under `Cc1ccc(Oc2nc3cc(-c4ccc(-c5cn[nH]c5)cc4)c(Cl)cc3[nH]2)cc1C(=O)O` [Example 202, 5-({6-chloro-5-[4-(1H-pyrazol-4-yl)phenyl]-1H-benzimidazol-2-yl}oxy)-2-methylbenzoic acid], greater than 80%. On the same count and under the same terms, under `Cc1ccc(Oc2nc3cc(-c4ccc(-c5c(C)n[nH]c5C)cc4)c(Cl)cc3[nH]2)cc1C(=O)O` [Example 203, 5-({6-chloro-5-[4-(3,5-dimethyl-1H-pyrazol-4-yl)phenyl]-1H-benzimidazol-2-yl}oxy)-2-methylbenzoic acid] stands greater than 80%; under `Cc1ccc(Oc2nc3cc(-c4ccc(-c5c(C)noc5C)cc4)c(Cl)cc3[nH]2)cc1C(=O)O` [Example 204, 5-({6-chloro-5-[4-(3,5-dimethylisoxazol-4-yl)phenyl]-1H-benzimidazol-2-yl}oxy)-2-methylbenzoic acid], greater than 80%; under `Cc1ccc(Oc2nc3cc(-c4ccc(-c5ccccc5N)cc4)c(Cl)cc3[nH]2)cc1C(=O)O` [Example 205, 5-{[5-(2′-aminobiphenyl-4-yl)-6-chloro-1H-benzimidazol-2-yl]oxy}-2-methylbenzoic acid], greater than 80%.

In the case of `CC(=O)NS(=O)(=O)c1cccc(Oc2nc3cc(-c4ccc(-c5ccccc5)cc4)c(Cl)cc3[nH]2)c1` [Example 206, N-Acetyl-3-(5-biphenyl-4-yl-6-chloro-1H-benzoimidazol-2-yloxy)-benzenesulfonamide], the Emax is greater than 80%. For `Cc1ccc(Oc2nc3cc(-c4ccc(-c5ccccc5)cc4)ccc3[nH]2)cc1C(=O)O` [Example 207, 5-(5-Biphenyl-4-yl-1H-benzoimidazol-2-yloxy)-2-methyl-benzoic acid], the Emax is greater than 80%. Take `Cc1cc(C)c(C(=O)O)cc1Oc1nc2cc(-c3ccc(-c4ccccc4)cc3)c(Cl)cc2[nH]1` [Example 208, 5-(5-Biphenyl-4-yl-6-chloro-1H-benzoimidazol-2-yloxy)-2,4-dimethyl-benzoic acid]: the Emax was greater than 80%. On the same count and under the same terms, the value for `O=C(O)c1ccc(F)c(Oc2nc3cc(-c4ccc(-c5ccccc5)cc4)c(Cl)cc3[nH]2)c1` [Example 209, 3-(5-Biphenyl-4-yl-6-chloro-1H-benzoimidazol-2-yloxy)-4-fluoro-benzoic acid] was greater than 80%. In the case of `O=C(O)c1ccc(Cl)c(Oc2nc3cc(-c4ccc(-c5ccccc5)cc4)c(Cl)cc3[nH]2)c1` [Example 210, 3-(5-Biphenyl-4-yl-6-chloro-1H-benzoimidazol-2-yloxy)-4-chloro-benzoic acid], the Emax was greater than 80%.

Take `COc1ccc(C(=O)O)cc1Oc1nc2cc(-c3ccc(-c4ccccc4)cc3)c(Cl)cc2[nH]1` [Example 211, 3-(5-Biphenyl-4-yl-6-chloro-1H-benzoimidazol-2-yloxy)-4-methoxy-benzoic acid]: the Emax is greater than 80%. The same measure, in the same setting: under `CCc1ccc(Oc2nc3cc(-c4ccc(-c5ccccc5)cc4)c(Cl)cc3[nH]2)cc1C(=O)O` [Example 212, 5-(5-Biphenyl-4-yl-6-chloro-1H-benzoimidazol-2-yloxy)-2-ethyl-benzoic acid] stands greater than 80%; under `Cc1cc(Oc2nc3cc(-c4ccc(-c5ccccc5)cc4)c(Cl)cc3[nH]2)c(C)c(C(=O)O)c1` [Example 213, 3-(5-Biphenyl-4-yl-6-chloro-1H-benzoimidazol-2-yloxy)-2,5-dimethyl-benzoic acid], greater than 80%; under `O=C(O)c1cccc(Oc2nc3cc(-c4ccc(-c5ccccc5)cc4)c(Cl)cc3[nH]2)n1` [Example 214, 6-(5-Biphenyl-4-yl-6-chloro-1H-benzoimidazol-2-yloxy)-pyridine-2-carboxylic acid], greater than 80%. Same read-out and setting: under `O=C(O)c1ccnc(Oc2nc3cc(-c4ccc(-c5ccccc5)cc4)c(Cl)cc3[nH]2)c1` [Example 215, 2-(5-Biphenyl-4-yl-6-chloro-1H-benzoimidazol-2-yloxy)-isonicotinic acid] stands greater than 80%; under `Cc1ccc(C(=O)O)cc1Oc1nc2cc(-c3ccc4c(ccn4C)c3)c(Cl)cc2[nH]1` [Example 216, 3-[6-Chloro-5-(1-methyl-1H-indol-5-yl)-1H-benzoimidazol-2-yloxy]-4-methyl-benzoic acid], greater than 80%. Turning to `Cn1ccc2cc(-c3cc4nc(Oc5ccc(Cl)c(C(=O)O)c5)[nH]c4cc3Cl)ccc21` [Example 217, 2-Chloro-5-[6-chloro-5-(1-methyl-1H-indol-5-yl)-1H-benzoimidazol-2-yloxy]-benzoic acid], the Emax was greater than 80%. On the same count and under the same terms, the value for `Cc1c(Oc2nc3cc(-c4ccc5c(ccn5C)c4)c(Cl)cc3[nH]2)cccc1C(=O)O` [Example 218, 3-[6-Chloro-5-(1-methyl-1H-indol-5-yl)-1H-benzoimidazol-2-yloxy]-2-methyl-benzoic acid] was greater than 80%. In the case of `NS(=O)(=O)c1cccc(Oc2nc3cc(-c4ccc(-c5ccccc5)cc4)c(Cl)cc3[nH]2)c1` [Example 220, 3-(5-Biphenyl-4-yl-6-chloro-1H-benzoimidazol-2-yloxy)-benzenesulfonamide], the Emax is greater than 80%. The same measure, in the same setting: under `Cc1ccc(Oc2nc3cc(-c4ccc(-c5ccccc5)cc4)c(Cl)cc3[nH]2)cc1C(=O)NS(C)(=O)=O` [Example 221, N-[5-(5-Biphenyl-4-yl-6-chloro-1H-benzoimidazol-2-yloxy)-2-methyl-benzoyl]-methanesulfonamide] stands greater than 80%; under `O=C(NS(=O)(=O)c1ccccc1)c1cccc(Oc2nc3cc(-c4ccc(-c5ccccc5)cc4)c(Cl)cc3[nH]2)c1` [Example 222, N-[3-(5-Biphenyl-4-yl-6-chloro-1H-benzoimidazol-2-yloxy)-benzoyl]-benzenesulfonamide], greater than 80%; under `COC(=O)Cn1c(Oc2ccc(C)c(C(=O)OC)c2)nc2cc(-c3ccc(-c4ccccc4)cc3)c(Cl)cc21` [Example 223, 5-(5-Biphenyl-4-yl-6-chloro-1-methoxycarbonyl-methyl-1H-benzoimidazol-2-yloxy)-2-methyl-benzoic acid methyl ester], greater than 80%. Same read-out and setting: under `Cc1ccc(Oc2nc3cc(-c4ccc(-c5ccccc5)cc4)c(Cl)cc3n2CC(=O)O)cc1C(=O)O` [Example 224, 5-(5-Biphenyl-1-yl-1-carboxymethyl-6-chloro-1H-benzoimidazol-2-yloxy)-2-methyl-benzoic acid] stands greater than 80%; under `CS(=O)(=O)NC(=O)c1cccc(Oc2nc3cc(-c4ccc(-c5ccccc5)cc4)c(Cl)cc3[nH]2)c1` [Example 225, N-[3-(5-Biphenyl-4-yl-6-chloro-1H-benzoimidazol-2-yloxy)-benzoyl]-methanesulfonamide], greater than 80%. The same measure, in the same setting: under `O=C(O)c1ccc(COc2nc3cc(-c4ccc(-c5ccccc5)cc4)c(Cl)cc3[nH]2)cc1` [Example 226, 4-(5-Biphenyl-4-yl-6-chloro-1H-benzoimidazol-2-yloxymethyl)-benzoic acid] stands greater than 80%; under `O=C(O)c1cc(COc2nc3cc(-c4ccc(-c5ccccc5)cc4)c(Cl)cc3[nH]2)cc(C(=O)O)c1` [Example 227, 5-(5-Biphenyl-4-yl-6-chloro-1H-benzoimidazol-2-yloxymethyl)-isophthalic acid], greater than 80%. As usually defined, the EC50 is the concentration that produces a half-maximal response. For `Cc1ccc(Oc2nc3c(F)c(-c4ccc5c(ccn5C)c4)c(F)cc3[nH]2)cc1C(=O)O` [Example 228, 5-[4,6-Difluoro-5-(1-methyl-1H-indol-5-yl)-1H-benzoimidazol-2-yloxy]-2-methyl-benzoic acid], the EC50 (read-out: EC50) stood at 2 nM.
